Test results reported in US5049559A, “Thieno-triazolo-diazepine derivatives useful as anti-ischemic agents” (priority 1989, dated 1991).
pIC50: −log10 of the molar value.

Key:
[1] = tested on: platelet aggregation induced by PAF; experiment: Inhibition of platelet aggregation induced by PAF; assay type: cell-based; details: Oryctolagus cuniculus, male New Zealand rabbits, Table I
Description: 1) Inhibition of platelet aggregation induced by PAF
This experimentation was conducted according to the method of R. KINLOUGH. RATHBONE, J. P. CAZENAVE, M. PACKHAM and F. MUSTARD, Lab. Invest. 48, 98, 1980. In this test, New Zealand rabbits were used (male New Zealand rabbits of an average weight of 5 kg).
The determinations are made on a chrono-log Coultronics aggregometer, at […] coupled with a graphic recorder; the results of these determinations (in molecular concentration) are reported on the table I on the central column.

benzodiazepine receptors = experiment: Inhibition of the binding to benzodiazepine receptors; details: rat brains, 1 hour 30 minutes at 4° C., tracers 3H-RO-15-1788 and 3H-RO-5-4864, Table I, read-out: BDZ receptors
Excerpt: 2) Inhibition of the binding to benzodiazepine receptors
The interest of the previous experimentation depends on the results obtained in this experimentation: as a compound of the invention has a benzodiazepine like structure, it is important to check whether the specific benzodiazepine activity would not appear at the dose where platelet aggregation was inhibited.
Therefore, this experimentation has been conducted according to the method of MOHLER H. and RICHARD J. G. Agonist and antagonist benzodiazepine receptor interaction in vitro, Nature, vol. 294, 763-765, 1981.
This experimentation was conducted on rat brains incubated 1 hour 30 minutes at 4° C. using ^3 H-RO-15-1788 and ^3 H-RO-5-4864 (NEN) as tracers and […] and RO-5-4864 as reference antagonists.
The results in molecular concentration are reported in the table I, on the right hand column.

[2] = Global ischemia on gerbils; assay type: in vivo; details: Meriones unguiculatus, 168 h, carotides clamped 10 minutes, hippocampes one week later, 3H-PK 11195, percentage of protection compared to control
Description: 3) Global ischemia on gerbils For this test, males gerbils were anaesthetized with brietal at the doses of 35 mg/kg IP; thereafter, both carotides were clamped for 10 minutes, then the clamping was released. Treated animals received each 10 mg/kg of the compounds of one of the examples. One week later, the animals were killed and both hippocampes were taken, weighed and frozen at -80° C. After crushing with 1 ml of TRIS-HCl pH 7.4 for 30 seconds, aliquots of each 50 μl of this preparation were incubed in each 1 ml of TRIS-HCl buffer containing ^3 H-PK 11195 at 2 nM (90 Ci/mmole, NENE, Germany) for 1 hour at 25° C. For each preparation, 3 determinations were made. The density of omega 3 sites (marked by the specific ^3 H-PK 11195 marker) are expressed in f-moles of PK 11195/mg of fresh tissues and converted in percentage of protection compared to control.

SMILES | pIC50 [1] | pIC50 (benzodiazepine receptors) | inhibition in vivo at 10 mg/kg [2] [%]
Cc1nnc2n1-c1sc3c(c1C(c1ccccc1Cl)=NC2)CCN(C(=O)CSC(C)C)C3 [Example 1, 6-(2-chlorophenyl)-9-(isopropylthiomethylcarbonyl)-7,8,9,10-tetrahydro-1-methyl-4H-pyrido [4',3':4,5] thieno [3,2-f] 1,2,4-triazolo [4,3-a] 1,4-diazepine] | 7.60 | 5.17 | 54.2
Cc1nnc2n1-c1sc3c(c1C(c1ccccc1Cl)=NC2)CCN(C(=S)CSC(C)C)C3 [Example 2, 6-(2-chlorophenyl)-9-(isopropylthiomethyl-thiocarbonyl)-7,8,9,10-tetrahydro-1-methyl-4H-pyrido [4',3':4,5] thieno [3,2-f] 1,2,4-triazolo [4,3-a] 1,4-diazepine] | 7.55 | 4.32 | 36.3
Cc1nnc2n1-c1sc3c(c1C(c1ccccc1Cl)=NC2)CCN(C(=O)CSC(C)(C)C)C3 [Example 3, 6-(2-chlorophenyl)-9-(t.butylthiomethyl-carbonyl)-7,8,9, 10-tetrahydro-1-methyl-4H-pyrido [4',3':4,5] thieno [3,2-f] 1,2,4-triazolo[4,3-a] 1,4-diazepine] | 7.77 | 5.64 | 34.3
Cc1nnc2n1-c1sc3c(c1C(c1ccccc1Cl)=NC2)CCN(C(=S)CSC(C)(C)C)C3 [Example 4, 6-(2-chlorophenyl)-9-(t.butylthiomethyl-thiocarbonyl)-7,8,9, 10-tetrahydro-1-methyl-4H-pyrido [4',3':4,5] thieno [3,2-f] 1,2,4-triazolo[4,3-a] 1,4-diazepine] | 6.30 | 5.81 | 38.1
CCCCCCCCCCCCCCCCSCC(=O)N1CCc2c(sc3c2C(c2ccccc2Cl)=NCc2nnc(C)n2-3)C1 [Example 5, 6-(2-chlorophenyl)-9-(hexadecylthiomethyl-carbonyl)-7,8,9, 10-tetrahydro-1-methyl-4H-pyrido [4',3':4,5] thieno [3,2-f] 1,2,4-triazolo[4,3-a] 1,4-diazepine] | 8.13 | 6.92 | 29.4
CCCCCCCCCCCCCCCCSCC(=S)N1CCc2c(sc3c2C(c2ccccc2Cl)=NCc2nnc(C)n2-3)C1 [Example 6, 6-(2-chlorophenyl)-9-(hexadecylthiomethyl-thiocarbonyl); 7,8,9, 10-tetrahydro-1-methyl-4H-pyrido [4',3':4,5] thieno [3,2-f] 1,2,4-triazolo[4,3-a] 1,4-diazepine] | 8.02 | 6.04 | 27.8
Cc1nnc2n1-c1sc3c(c1C(c1ccccc1Cl)=NC2)CCN(C(=O)CSc1ccccc1)C3 [Example 7, 6-(2-chlorophenyl)-9-(phenyl-thiomethyl-carbonyl)-7,8,9, 10-tetrahydro-1-methyl-4H-pyrido [4',3':4,5] thieno [3,2-f] 1,2,4-triazolo[4,3-a] 1,4-diazepine] | 6.29 | 5.68 | 14.8
Cc1nnc2n1-c1sc3c(c1C(c1ccccc1Cl)=NC2)CCN(C(=S)CSc1ccccc1)C3 [Example 8, 6-(2-chorophenyl)-9-(phenyl-thiomethyl-thiocarbonyl)-7,8,9, 10-tetrahydro-1-methyl-4H-pyrido [4',3':4,5] thieno [3,2-f] 1,2,4-triazolo[4,3-a] 1,4-diazepine] | 7.98 | 5.13 | 26.2
COc1ccc(SCC(=O)N2CCc3c(sc4c3C(c3ccccc3Cl)=NCc3nnc(C)n3-4)C2)cc1 [Example 9, 6-(2-chlorophenyl)-9-(4-methoxyphenylthiomethyl-carbonyl)-7,8,9, 10-tetrahydro-1-methyl-4H-pyrido [4',3':4,5] thieno [3,2-f] 1,2,4-triazolo[4,3-a] 1,4-diazepine] | 7.47 | 5.57 | 31.2
